Several values for one entry are separate records, joined by “and”; a condition that tells them apart may be missing. Equal entries are not always repeated. Toxic doses and inconclusive results are not listed.
System: L1210 leukemia ip in BDF1 mice, survival T/C
Test: NCI In Vivo Anticancer Drug Screen. Data for tumor model L1210 Leukemia (intraperitoneal) in B6D2F1 (BDF1) mice
Details: endpoint: mean survival time, higher = longer survival
Procedure, shortened: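 Value reflects the ratio of survival in compound-treated mice to survival in vehicle-treated controls, with both groups carrying the same transplanted tumor.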

[1] = dose: 50.0 mg/kg/injection, schedule: Q01DX001 (ip), vehicle: saline
[2] = dose: 100.0 mg/kg/injection, schedule: Q01DX001 (ip), vehicle: saline
[3] = dose: 100.0 mg/kg/injection, schedule: Q04DX003 (ip), vehicle: Klucel (hydroxypropylcellulose) (HPC)
[4] = dose: 200.0 mg/kg/injection, schedule: Q04DX003 (ip), vehicle: Klucel (hydroxypropylcellulose) (HPC)
[5] = dose: 400.0 mg/kg/injection, schedule: Q04DX003 (ip), vehicle: Klucel (hydroxypropylcellulose) (HPC)
[6] = dose: 200.0 mg/kg/injection, schedule: Q01DX001 (ip), vehicle: saline
[7] = dose: 400.0 mg/kg/injection, schedule: Q01DX001 (ip), vehicle: saline
[8] = dose: 100.0 mg/kg/injection, schedule: Q04DX003 (ip), vehicle: saline with Tween-80
[9] = dose: 200.0 mg/kg/injection, schedule: Q04DX003 (ip), vehicle: saline with Tween-80
[10] = dose: 12.5 mg/kg/injection, schedule: Q01DX009 (ip), vehicle: saline with Tween-80
[11] = dose: 25.0 mg/kg/injection, schedule: Q01DX009 (ip), vehicle: saline with Tween-80
[12] = dose: 100.0 mg/kg/injection, schedule: Q04DX003 (ip), vehicle: other
[13] = dose: 200.0 mg/kg/injection, schedule: Q04DX003 (ip), vehicle: other
[14] = dose: 400.0 mg/kg/injection, schedule: Q04DX003 (ip), vehicle: other
[15] = dose: 25.0 mg/kg/injection, schedule: Q04DX003 (ip), vehicle: saline with Tween-80
[16] = dose: 100.0 mg/kg/injection, schedule: Q01DX009 (ip), vehicle: saline with Tween-80

SMILES: CCSc1n[nH]c(=O)nc1NN
- T/C (dose: 10.0 mg/kg/injection, schedule: Q01DX001 (ip), vehicle: acetone): 102 % of control
- T/C (dose: 20.0 mg/kg/injection, schedule: Q01DX001 (ip), vehicle: acetone): 96 % of control
- T/C (dose: 40.0 mg/kg/injection, schedule: Q01DX001 (ip), vehicle: acetone): 96 % of control

SMILES: NC1=NC=NC(c2ccccc2)N1c1ccccc1F (stereo unspecified)
- T/C (dose: 25.0 mg/kg/injection, schedule: Q01DX001 (ip), vehicle: saline): 101 % of control
- T/C [1]: 96 % of control
- T/C [2]: 104 % of control

SMILES: CC(C)(C)c1ccc(C(c2ccc(C(C)(C)C)cc2)C(Cl)Cl)cc1
- T/C [3]: 113 % of control
- T/C [4]: 96 % of control
- T/C [5]: 97 % of control

SMILES: N=c1ccn(C2OC(CO)C(O)C2O)c(=O)n1O (stereo unspecified)
- T/C (dose: 5.0 mg/kg/injection, schedule: Q01DX009 (ip), vehicle: saline): 123 % of control
- T/C (dose: 10.0 mg/kg/injection, schedule: Q01DX009 (ip), vehicle: saline): 100 % of control
- T/C [2]: 105 % of control
- T/C [6]: 108 % of control
- T/C [7]: 103 % of control and 105 % of control
- T/C (dose: 400.0 mg/kg/injection, schedule: Q01DX009 (ip), vehicle: saline): 167 % of control
- T/C (dose: 600.0 mg/kg/injection, schedule: Q01DX001 (ip), vehicle: saline): 105 % of control
- T/C (dose: 600.0 mg/kg/injection, schedule: Q01DX009 (ip), vehicle: saline): 94 % of control
- T/C (dose: 800.0 mg/kg/injection, schedule: Q01DX001 (ip), vehicle: saline): 110 % of control
- T/C (dose: 800.0 mg/kg/injection, schedule: Q01DX009 (ip), vehicle: saline): 94 % of control

SMILES: O=C1C=CC(=O)N1c1ccc(Cl)cc1Br
- T/C (dose: 5.0 mg/kg/injection, schedule: Q01DX009 (ip), vehicle: saline with Tween-80): 91 % of control
- T/C (dose: 10.0 mg/kg/injection, schedule: Q01DX009 (ip), vehicle: saline with Tween-80): 91 % of control
- T/C (dose: 20.0 mg/kg/injection, schedule: Q01DX009 (ip), vehicle: saline with Tween-80): 91 % of control

SMILES: CCCCCCCCCCCCN1CCCC(O)C1 (stereo unspecified)
- T/C [8]: 93 % of control
- T/C [9]: 88 % of control

SMILES: O=S(=O)(O)CCCBr
- T/C (dose: 100.0 mg/kg/injection, schedule: Q04DX003 (ip), vehicle: acetone): 96 % of control
- T/C (dose: 200.0 mg/kg/injection, schedule: Q04DX003 (ip), vehicle: acetone): 95 % of control
- T/C (dose: 400.0 mg/kg/injection, schedule: Q04DX003 (ip), vehicle: acetone): 87 % of control

SMILES: CNc1ncccn1
- T/C [1]: 109 % of control
- T/C [2]: 103 % of control
- T/C [6]: 107 % of control
- T/C [7]: 107 % of control

SMILES: CC(=O)Oc1ccc2ccccc2c1/C=C/c1ccncc1
- T/C (dose: 6.25 mg/kg/injection, schedule: Q01DX009 (ip), vehicle: saline): 104 % of control
- T/C (dose: 12.5 mg/kg/injection, schedule: Q01DX009 (ip), vehicle: saline): 102 % of control
- T/C (dose: 25.0 mg/kg/injection, schedule: Q01DX009 (ip), vehicle: saline): 96 % of control and 105 % of control
- T/C (dose: 25.0 mg/kg/injection, schedule: Q04DX003 (ip), vehicle: saline): 115 % of control
- T/C (dose: 50.0 mg/kg/injection, schedule: Q01DX009 (ip), vehicle: saline): 95 % of control
- T/C (dose: 50.0 mg/kg/injection, schedule: Q04DX003 (ip), vehicle: saline): 93 % of control
- T/C (dose: 100.0 mg/kg/injection, schedule: Q04DX003 (ip), vehicle: saline): 94 % of control and 90 % of control

SMILES: C=CC[n+]1ccccc1/C=C/c1ccc(OC)c(OC)c1
- T/C (dose: 3.12 mg/kg/injection, schedule: Q01DX009 (ip), vehicle: Klucel (hydroxypropylcellulose) (HPC)): 106 % of control
- T/C (dose: 3.12 mg/kg/injection, schedule: Q04DX003 (ip), vehicle: Klucel (hydroxypropylcellulose) (HPC)): 105 % of control
- T/C (dose: 6.25 mg/kg/injection, schedule: Q01DX009 (ip), vehicle: Klucel (hydroxypropylcellulose) (HPC)): 106 % of control
- T/C (dose: 6.25 mg/kg/injection, schedule: Q04DX003 (ip), vehicle: Klucel (hydroxypropylcellulose) (HPC)): 100 % of control
- T/C (dose: 12.5 mg/kg/injection, schedule: Q01DX009 (ip), vehicle: Klucel (hydroxypropylcellulose) (HPC)): 98 % of control
- T/C (dose: 12.5 mg/kg/injection, schedule: Q04DX003 (ip), vehicle: Klucel (hydroxypropylcellulose) (HPC)): 94 % of control and 100 % of control

SMILES: OC1C2C3CCC(C3)C2C(O)C2C3CCC(C3)C12 (stereo unspecified)
- T/C [10]: 101 % of control
- T/C [11]: 101 % of control

SMILES: CC12CCC3(CC1CCC(OC(=O)c1ccccc1)C2)OCCO3 (stereo unspecified)
- T/C (dose: 100.0 mg/kg/injection, schedule: Q01DX009 (ip), vehicle: other): 93 % of control
- T/C [12]: 108 % of control
- T/C (dose: 200.0 mg/kg/injection, schedule: Q01DX009 (ip), vehicle: other): 95 % of control
- T/C [13]: 106 % of control
- T/C (dose: 400.0 mg/kg/injection, schedule: Q01DX009 (ip), vehicle: other): 90 % of control
- T/C [14]: 95 % of control

SMILES: C[N+](C)(Cc1ccc(F)cc1)C1c2ccccc2-c2ccccc21
- T/C (dose: 6.25 mg/kg/injection, schedule: Q04DX003 (ip), vehicle: saline with Tween-80): 90 % of control
- T/C [15]: 89 % of control

SMILES: Cc1cc(NC(=O)Nc2ccccc2C)no1
- T/C [16]: 89 % of control
- T/C [8]: 97 % of control
- T/C (dose: 200.0 mg/kg/injection, schedule: Q01DX009 (ip), vehicle: saline with Tween-80): 93 % of control
- T/C [9]: 101 % of control
- T/C (dose: 400.0 mg/kg/injection, schedule: Q01DX009 (ip), vehicle: saline with Tween-80): 91 % of control
- T/C (dose: 400.0 mg/kg/injection, schedule: Q04DX003 (ip), vehicle: saline with Tween-80): 97 % of control

SMILES: O=C1NC2C(NC(=O)N2Cl)N1Cl (stereo unspecified)
- T/C [10]: 97 % of control
- T/C [11]: 100 % of control
- T/C [15]: 94 % of control
- T/C (dose: 40.0 mg/kg/injection, schedule: Q01DX Z (ip), vehicle: carboxymethylcellulose (CMC)): 92 % of control
- T/C (dose: 50.0 mg/kg/injection, schedule: Q01DX009 (ip), vehicle: saline with Tween-80): 94 % of control
- T/C (dose: 50.0 mg/kg/injection, schedule: Q04DX003 (ip), vehicle: saline with Tween-80): 95 % of control
- T/C [16]: 94 % of control
- T/C [8]: 105 % of control

SMILES: CCc1nc2c(OC)ccc(OC)c2[nH]c1=O
- T/C [12]: 103 % of control
- T/C [13]: 103 % of control
- T/C [14]: 106 % of control

SMILES: Nc1cc2c(cc1N)-c1ccccc1/C2=N\O
- T/C (dose: 75.0 mg/kg/injection, schedule: Q01DX001 (ip), vehicle: carboxymethylcellulose (CMC)): 102 % of control
- T/C (dose: 150.0 mg/kg/injection, schedule: Q01DX001 (ip), vehicle: carboxymethylcellulose (CMC)): 91 % of control

SMILES: CC(C)CCCC(C)C1CCC2C3CC(O)C4=CC(O)CCC4(C)C3CCC12C (stereo unspecified)
- T/C (dose: 75.0 mg/kg/injection, schedule: Q01DX001 (ip), vehicle: other): 92 % of control
- T/C (dose: 150.0 mg/kg/injection, schedule: Q01DX001 (ip), vehicle: other): 93 % of control

SMILES: OCC1(CO)CCCCC1
- T/C [3]: 105 % of control
- T/C [4]: 109 % of control
- T/C [5]: 105 % of control

SMILES: CC(=O)NC1C(OC(=O)c2ccccc2)OC(CO)C(O)C1OC(=O)c1ccccc1 (stereo unspecified)
- T/C (dose: 100.0 mg/kg/injection, schedule: Q01DX001 (ip), vehicle: saline with Tween-80): 101 % of control
- T/C (dose: 200.0 mg/kg/injection, schedule: Q01DX001 (ip), vehicle: saline with Tween-80): 105 % of control
- T/C (dose: 400.0 mg/kg/injection, schedule: Q01DX001 (ip), vehicle: saline with Tween-80): 94 % of control

SMILES: N#C/C(=C/c1ccc(Cl)cc1)C(=O)O
- T/C (dose: 62.5 mg/kg/injection, schedule: Q01DX009 (ip), vehicle: Klucel (hydroxypropylcellulose) (HPC)): 115 % of control
- T/C (dose: 100.0 mg/kg/injection, schedule: Q04DX002 (ip), vehicle: Klucel (hydroxypropylcellulose) (HPC)): 109 % of control
- T/C (dose: 125.0 mg/kg/injection, schedule: Q01DX009 (ip), vehicle: Klucel (hydroxypropylcellulose) (HPC)): 86 % of control
- T/C (dose: 200.0 mg/kg/injection, schedule: Q04DX002 (ip), vehicle: Klucel (hydroxypropylcellulose) (HPC)): 98 % of control
- T/C (dose: 250.0 mg/kg/injection, schedule: Q01DX009 (ip), vehicle: Klucel (hydroxypropylcellulose) (HPC)): 86 % of control

— PubChem BioAssay AID248 (DTP/NCI, 2004)
